The results in this text go back to US11660328B2, “GLP-2 analogs and peptibodies for administration before, during or after surgery” (TAKEDA PHARMACEUTICAL COMPANY LIMITED, priority 2017, dated 2023).

The test system of this assay is small intestine. Kind of assay: Histology study of villi length and crypt depth (H&E sections, imagescope). The class given is in vivo, female CD-1 mice. To be noted: after administration vs without treatment, FIGS. 1-3; for villus height: small intestine. Here is the method: Various doses of GLP-2 peptibody B264 were analyzed to assess the pharmacodynamic plateau, with the primary endpoint a measurement of the small intestinal weight relative to the total body weight and a histology study of the length of villi. 11 groups of six female CD-1 mice each were formed. [table] For histology, four micron paraffin sections were prepared for H&E and Ki67 IHC staining. After whole slide scanning, an imagescope was used to measure villi length and crypt depth, and to analyze Ki67. The antibody against Ki67 is a rabbit antibody sold by Adcam®, catalog number ab 616667. The antibody was used at a working concentration of 1:100 and was detected using a Leica® Refine Kit. […] See, e.g., Example 13 of U.S. Provisional Application No. 62/548,601, filed Aug. 22, 2017 for more data and examples with respect to GLP-2 peptibody B264, GLP-2 peptibody […], and a GLP-2[[…]] peptide.

Turning to `CC[C@H](C)[C@H](NC(=O)[C@H](Cc1ccccc1)NC(=O)[C@H](CC(=O)O)NC(=O)[C@H](CCCNC(=N)N)NC(=O)[C@H](C)NC(=O)[C@H](C)NC(=O)[C@H](CC(C)C)NC(=O)[C@H](CC(N)=O)NC(=O)[C@H](CC(=O)O)NC(=O)[C@H](CC(C)C)NC(=O)[C@@H](NC(=O)[C@@H](NC(=O)[C@H](CC(N)=O)NC(=O)[C@H](CCSC)NC(=O)[C@H](CCC(=O)O)NC(=O)[C@H](CC(=O)O)NC(=O)[C@H](CO)NC(=O)[C@H](Cc1ccccc1)NC(=O)[C@H](CO)NC(=O)CNC(=O)[C@H](CC(=O)O)NC(=O)CNC(=O)[C@@H](N)Cc1c[nH]cn1)[C@@H](C)O)[C@@H](C)CC)C(=O)N[C@@H](CC(N)=O)C(=O)N[C@@H](Cc1c[nH]c2ccccc12)C(=O)N[C@@H](CC(C)C)C(=O)N[C@H](C(=O)N[C@@H](CCC(N)=O)C(=O)N[C@H](C(=O)N[C@@H](CCCCN)C(=O)N[C@H](C(=O)N[C@H](C(=O)N[C@@H](CC(=O)O)C(=O)O)[C@@H](C)O)[C@@H](C)CC)[C@@H](C)O)[C@@H](C)CC` [h(Gly2)GLP-2, teduglutide, reference compound], the “crypt depth in the small intestine” value is reported as “increased crypt depth” and the villus height entry is listed as “increased villus height”.
The like results for “GLP-2 peptibody K274: GLP-2 peptibody having the amino acid sequence of SEQ ID NO: 4 (GLP-2[A2G]-linker-IgG1 Fc fusion)” were, in that order, “increased crypt depth” and “increased villus height”.
